Assay results: patent publication US4568687A, “N-[2-4-(1H-Imidazol-1-yl)alkyl]-arylamides and pharmaceutical compositions” (American Cyanamid Company, priority 1984, dated 1986)
Structures can show the parent of a compound that is named as a salt.

Key:
thromboxane synthetase = biological target: T1, thromboxane synthetase (Rattus norvegicus, UniProt P49430); assay: Inhibition of thromboxane (TXB2) formation in washed rat platelets, TXB2 by direct radioimmunoassay; type: cell-based, Okamoto-Aoki spontaneously hypertensive rats (SHR); details: 10 min; Dose 10^-4 (unit inferred); SHR platelet suspension, 10 minutes at 37° C.
T1 construct: The platelets were isolated by centrifuging the PRP for 10 minutes; endogenous in cells; host or cells: washed platelets from arterial blood of Okamoto-Aoki spontaneously hypertensive rats (rats from Taconic Farms)
T1 sequence (P49430 1-533): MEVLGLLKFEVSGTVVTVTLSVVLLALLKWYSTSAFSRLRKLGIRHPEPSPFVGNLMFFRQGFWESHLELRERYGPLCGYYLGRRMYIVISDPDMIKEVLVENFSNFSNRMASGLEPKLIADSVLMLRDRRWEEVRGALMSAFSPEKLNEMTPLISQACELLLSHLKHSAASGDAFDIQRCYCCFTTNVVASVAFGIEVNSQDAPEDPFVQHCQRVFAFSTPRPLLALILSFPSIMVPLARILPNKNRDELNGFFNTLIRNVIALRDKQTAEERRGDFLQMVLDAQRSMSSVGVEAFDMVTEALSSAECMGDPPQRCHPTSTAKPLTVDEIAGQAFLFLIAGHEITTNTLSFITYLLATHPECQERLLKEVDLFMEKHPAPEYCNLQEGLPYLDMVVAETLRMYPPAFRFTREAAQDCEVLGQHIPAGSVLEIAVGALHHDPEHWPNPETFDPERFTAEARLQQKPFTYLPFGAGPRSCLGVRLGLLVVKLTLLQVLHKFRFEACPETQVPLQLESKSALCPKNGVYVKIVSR
Procedure: Under urethan anesthesia, […] of arterial blood was collected in one ml. of 3.2% sodium citrate in a polystyrene tube from Okamoto-Aoki spontaneously hypertensive rats (SHR) (Taconic Farms, Germantown, NY) between 19 and 24 weeks in age. The blood was diluted with 3 ml. cold saline and centrifuged at room temperature for 15 minutes at 460×g. The platelet rich plasma (PRP) was separated. The platelets were isolated by centrifuging the PRP for 10 minutes at 1060×g and were washed in 4 ml. cold oxygenated Krebs phosphate buffer, pH 7.4. The chilled patelets recovered from centrifuging at 800×g for 10 minutes were resuspended in oxygenated Krebs phosphate buffer and diluted to contain 4.5-6.0×10^4 platelets/μl.
The inhibition of thromboxane (TX) formation was studied by determining the […] of thromboxane B2 (TXB2), the stable hydrolysis product of TXA2. Assay samples, prepared on ice, contained 200 μl platelet suspension, 50 μl saline, and 50 μl vehicle or drug under study (OKY-1581, UK-37248-01, 1-benzylimidazole, or indomethacin). The samples were incubated for 10 minutes at 37° C. in a metabolic shaker. The reaction was terminated by immersing the tubes in an ice bath and adding 50 μl of 0.5M citric acid. The samples were centrifuged for 10 minutes in a refrigerated centrifuge and the supernatants thus obtained were decanted and stored at -20° C. The TXB2 content for each sample was determined by a direct radioimmunoassay (RIA) utilizing a TXB2 specific RIA kit purchased from New England Nuclear, Boston, MA and expressed as pg TXB2 formed minute^-1 sample^-1, from which the percent inhibition of TXB2 formation was calculated.

[1] = system: spontaneously hypertensive rats of the Okamoto strain; assay: Hypotensive activity: mean arterial blood pressure (MABP) in spontaneously hypertensive rats, method of Chan and Poorvin; type: in vivo; details: gavage, 100 mg/kg or less, two doses 24 hours apart, sodium chloride loading; 28 hours after initial dose; average of 1-4 rats; initial average 160±1.5 mm; active if ≤116 (1 rat), ≤122 (2 rats), ≤128 (3 rats)
Procedure: The novel compounds of the present invention are also active hypotensive agents and were tested for hypotensive activity by the method of P. S. Chan and D. Poorvin, Clinical and Experimental Hypertension, 1 (6), 817-830 (1979). Male, 16 week old, spontaneously hypertensive rats of the Okamoto strain, from Taconic Farms, Germantown, N.Y. having an average mean arterial blood pressure of 160±1.5 mm of mercury are used in the test. […] A rat is dosed by gavage with a test compound, suspended in 2% pre-boiled starch at a concentration of 50 mg/ml, at a dose of 100 mg/kg of body weight or less, with 0.9% sodium chloride loading at a dose of 25 ml/kg of body weight. A second identical dose of the test compound, without sodium chloride loading is given 24 hours later. At 28 hours after the initial dose, the mean arterial blood pressure (MABP) is measured by the method of Chan and Poorvin vide supra. The procedure is repeated in a second and third rat when necessary. Based on the data obtained and using the three-stage "sequential probability ratio test" statistical method, the criteria for activity or retest are as follows:
If the blood pressure in the first rat is ≤116 mm mercury the compound is considered active. If the blood pressure is between […], a second rat is used. If the average blood pressure of the first and second rats is ≤122 mm the compound is considered active. If the average blood pressure is between 123 and 137 mm, a third rat is used. If the average blood pressure of the three rats is ≤128 mm the compound is considered active. The results of this test on representative compounds of the present invention appear in Table II below.

| SMILES | inhibition at 100 µM (thromboxane synthetase) | MABP/mm Hg [1] |
| --- | --- | --- |
| C=CCNc1ccc(Cl)cc1C(=O)NCCCn1ccnc1 [2-Allylamino-5-chloro-N--[3-(1H--imidazol-1-yl)propyl]benzamide] | 95% | 124 mm Hg |
| CC(CCN1C(=O)c2ccccc2C1=O)n1ccnc1 (stereo not shown) [2-[3-(1H--imidazol-1-yl)butyl]-1H--isoindole-1,3(2H)--dione] |  | 124 mm Hg |
| O=C1c2ccccc2C(=O)N1CCCCn1ccnc1 [2-[4-(1H-Imidazol-1-yl)butyl]-1H-isoindole-1,3(2H)-dione] | 99% | 120 mm Hg |
| O=C1c2ccccc2C(=O)N1CCCCCCn1ccnc1 [2-[6-(1H--imidazol-1-yl)hexyl]-1H--isoindole-1,3(2H)--dione] |  | 110 mm Hg |
| Cc1cc(Cl)cc(C(=O)NCCCn2ccnc2)c1N [2-amino-5-chloro-3-methyl-N--[3-(1H--imidazol-1-yl)propyl]benzamide dihydrochloride salt] | 80% | 125 mm Hg |
| Nc1ccc(Cl)cc1C(=O)NCCCn1ccnc1 [2-amino-5-chloro-N--[3-(1H--imidazol-1-yl)propyl]benzamide] | 96% | 113 mm Hg |
| O=C(NCCCn1ccnc1)c1ccccc1-c1ccccc1 [2-phenyl-N--[3-(1H--imidazol-1-yl)propyl]benzamide] | 95% | 124 mm Hg |
| CC(CCNC(=O)c1ccc(Cl)c(Cl)c1)n1ccnc1 (stereo not shown) [3,4-dichloro-N--[3-(1H--imidazol-1-yl)butyl]benzamide] | 86% | 123 mm Hg |
| Cc1cn(CCCNC(=O)c2ccc(Cl)c(Cl)c2)cn1 [3,4-dichloro-N--[3-(4-methyl-1H--imidazol-1-yl)propyl]benzamide] | 90% | 116 mm Hg |
| O=C(NCCCn1ccnc1)c1cccc(Cl)c1 [3-Chloro-N-[3-(1H-imidazol-1-yl)propyl]benzamide] | 75.4% | 124 mm Hg |
| Cc1cn(CCCNC(=O)c2cccc(Cl)c2)cn1 [3-chloro-N--[3-(4-methyl-1H--imidazol-1-yl)propyl]benzamide] | 84% | 122 mm Hg |
| O=C(NCCCn1cnc(-c2ccccc2)c1)c1ccc(Cl)cc1 [4-Chloro-N-[3-(4-phenyl-1H-imidazol-1-yl)propyl]-benzamide] | 69% | 125 mm Hg |
| O=C(NCCCn1ccnc1-c1ccccc1)c1ccc(Br)cc1 [4-bromo-N--[3-(2-phenyl-1H--imidazol-1-yl)propyl]benzamide, fumarate] |  | 115 mm Hg |
| Cc1nccn1CCCNC(=O)c1ccc(Cl)cc1 [4-chloro-N--[3-(2-methyl-1H--imidazol-1-yl)propyl]benzamide] |  | 121 mm Hg |
| Cc1ccc(CC(=O)NCCCn2ccnc2)cc1 [N--[3-(1H--imidazol-1-yl)propyl]-4-methylbenzeneacetamide, hemifumarate] |  | 109 mm Hg |

Second part, led by results:

| inhibition at 100 µM (thromboxane synthetase) | SMILES | MABP/mm Hg [1] |
| --- | --- | --- |
| 85% | O=C(NCCCn1ccnc1)c1ccc(Br)cc1 [4-bromo-N--[3-(1H--imidazol-1-yl)propyl]benzamide] | 120 mm Hg |
| 80% | Cc1cn(CCCNC(=O)c2ccc(Br)cc2)cn1 [4-bromo-N--[3-(4-methyl-1H--imidazol-1-yl)propyl]benzamide] | 122 mm Hg |
| 95% | O=C(NCCCn1ccnc1)c1ccc(Cl)cc1 [4-chloro-N--[3-(1H--imidazol-1-yl)propyl]benzamide] | 126 mm Hg |
| 93% | Cc1cn(CCCNC(=O)c2ccc(Cl)cc2)cn1 [4-chloro-N--[3-(4-methyl-1H--imidazol-1-yl)propyl]benzamide] | 112 mm Hg |
| 92% | Cc1cn(CCCNC(=O)c2ccc(C(F)(F)F)cc2)cn1 [4-trifluoromethyl-N--[3-(4-methyl-1H--imidazol-1-yl)propyl]benzamide] | 114 mm Hg |
| 97% | O=C(NCCCCn1ccnc1)c1ccc(C(F)(F)F)cc1 [4-trifluoromethyl-N--[4-(1H--imidazol-1-yl)butyl]benzamide fumarate] | 123 mm Hg |
| 75% | O=C(NCCCn1ccnc1)c1cccc2ccccc12 [N--[3-(1H--imidazol-1-yl)propyl]-1-naphthalenecarboxamide] | 124 mm Hg |
| 97% | O=C(NCCCn1ccnc1)c1ccc2ccccc2c1 [N--[3-(1H--imidazol-1-yl)propyl]-2-naphthalenecarboxamide] | 127 mm Hg |
| 96.3% | O=C(NCCCn1ccnc1)c1ccccc1 [N-[3-(1H-Imidazol-1-yl)propyl]benzamide] | 128 mm Hg |
